# Structures can show the parent of a compound that is named as a salt.
# Columns and labels:
# Solubility = type: physicochemical; details: for Solubility (solvents in which insoluble): hexane and water; for Solubility (solvents in which soluble): organic solvents as listed
# [1] = system: PDE preparation partially purified from bovine cerebral cortex; test: PDE-inhibiting activity (Experimental Example 1); type: biochemical; details: 1.2 mM cAMP, 4 U/ml calmodulin, 50 μM calcium chloride, pH 6.9, 30° C., 30 minutes
# Method: Methanol solutions of the test compounds at various concentrations (50 μl each) were respectively added to 500 μl of a reaction mixture comprising 80 mM imidazole-hydrochloride buffer (pH 6.9), 3 mM magnesium sulfate, 0.3 mM dithiothreitol, 100 mM sodium chloride, 50 μM calcium chloride, 1.2 mM cAMP, 4 U/ml calmodulin (1U is defined as the amount which activates 50% of the maximum activity of PDE under the conditions) and 26 mU/ml PDE (1U is defined as the amount which hydrolyzes 1 μmol of cAMP in one minute), and reaction was allowed to proceed at 30° C. for 30 minutes.
# The reaction was discontinued by heating at 100° C. for 5 minutes. Then, 6 μmol of manganese chloride and 0.2 U of 5'-nucleotidase (1U is defined as the amount which forms 1 μmol of phosphoric acid in one minute) were added to the reaction mixture, and reaction was allowed to proceed at 30° C. for 30 minutes. […] Inhibition rate was calculated in accordance with the following equation:
# Inhibition rate=(A-B)/A×100 (%)
# A: Amount of the inorganic phosphoric acid formed in the absence of a test compound
# B: Amount of the inorganic phosphoric acid formed in the presence of a test compound
# [2] = system: Rat Peritoneal Exudate Cells; test: Effect on Histamine Release from Rat Peritoneal Exudate Cells (Experimental Example 2); type: cell-based; details: phosphatidyl-L-serine and concanavalin A stimulation; for IC50: 37° C., read-out: IC50 (concentration of a test compound which inhibits histamine release by 50%)
# Method: Effect on Histamine Release from Rat Peritoneal Exudate Cells
# 1) Preparation of Suspension of Rat Abdominal Cavity Cells and Effect on Histamine Release
# Rats weighing from 350 to 450 g were sacrificed by exsanguination under dry ether anesthesia, and a medium for mast cells (composition : 150 mM NaCl, 3.7 mM KCl, 3 mM Na2 HPO4, 3.5 mM KH2 PO4, 1 mM CaCl2, 5.6 mM glucose, 0.1% bovine serum albumin and 10 U/ml heparin) prepared according to the method of Sullivan, et al. [J. Immunol. 114, 1473 (1973)] was intraperitoneally injected into the animals in an amount of 15 ml/animal. After massage of the abdominal parts for 2 minutes, the animals were subjected to celiotomy to sample exudate in the abdominal cavities. The collected exudate was subjected to centrifugation at 100 xg at 4° C. for 5 minutes, and the precipitate was mixed with an appropriate amount of the ice-cooled medium for mast cells mentioned above to prepare a suspension. Then, the centrifugation and the addition of the medium were repeated three times to prepare a cell suspension wherein the final concentration of the mast cells was about 2×10^5 cells/ml. Identification of the mast cells was carried out by staining intracellular granules with 0.05% Toluidine Blue.
# One milliliter portions of the thus obtained cell suspension were preincubated at 37° C. for 5 minutes, and then respectively mixed with 0.1 ml each of test compound solutions having various concentrations,followed by incubation for 5 minutes. The incubated mixtures were further mixed with 0.1 ml each of 10 μg/ml phosphatidyl-L-serine and concanavalin A, and then incubated for 15 minutes.
# Spontaneous histamine release was determined under similar incubation conditions except that physiological saline was used in place of phosphatidyl-L-serine and concanavalin A.
# The reaction was stopped by addition of 3 ml of ice-cooled physiological saline, and the cell suspension was subjected to centrifugation at 1100 xg at 4° C. for 10 minutes to obtain a supernatant and a residue. Histamine contents of the supernatant and the residue were measured by the fluorescence method according to the method of Komatsu [Allergy 27, 67 (1978)]. Histamine release rate was indicated as the percentage of the histamine content of the supernatant to the total histamine content of the cells. The rate of inhibition of histamine release by the test compound solution was calculated according to the following equation: [formula]
smiles,measurement,setting,value
Cc1c(C)c(C(=O)Oc2c(C)c(O)c(C)c(C)c2C(=O)SSC(=O)c2c(C)c(C)c(O)c(C)c2OC(=O)c2c(C)c(C)c(O)c(C)c2O)c(O)c(C)c1O [KS-506a],Solubility (solvents in which insoluble),Solubility,insoluble in hexane and water
same,Solubility (solvents in which soluble),Solubility,"soluble in methanol, ethanol, acetone, ethyl acetate, acetonitrile, dimethylsulfoxide and chloroform"
same,IC50 (concentration of a test compound inhibiting 50% of the PDE activity),[1],1.22 µg/mL
Cc1c(C)c(C(=O)Oc2c(C)c(O)c(C)c(C)c2SSc2c(C)c(C)c(O)c(C)c2OC(=O)c2c(C)c(C)c(O)c(C)c2O)c(O)c(C)c1O [KS-506g],Solubility (solvents in which insoluble),Solubility,insoluble in hexane and water
same,Solubility (solvents in which soluble),Solubility,"soluble in methanol, ethanol, acetone, ethyl acetate, acetonitrile, dimethylsulfoxide and chloroform"
same,IC50 (concentration of a test compound inhibiting 50% of the PDE activity),[1],0.080 µg/mL
COC(=O)c1c(C)c(C)c(O)c(C)c1OC(=O)c1c(C)c(C)c(O)c(C)c1O [KS-506h],inhibition at 3 µg/mL,"[2]; concentration of test compound 3.0 μg/ml, read-out: Release inhibition rate",13.9%
same,inhibition at 10 µg/mL,"[2]; concentration of test compound 10.0 μg/ml, read-out: Release inhibition rate",59.9%
same,IC50,[2],8.2 µg/mL
same,Solubility (solvents in which insoluble),Solubility,insoluble in hexane and water
same,Solubility (solvents in which soluble),Solubility,"soluble in methanol, acetone, ethyl acetate, acetonitrile and dimethylsulfoxide"
CC(=O)CCSC(=O)c1c(C)c(C)c(O)c(C)c1OC(=O)c1c(C)c(C)c(O)c(C)c1O [KS-506m],inhibition at 0.5 µg/mL,"[2]; concentration of test compound 0.5 μg/ml, read-out: Release inhibition rate",27.9%
same,inhibition at 1.5 µg/mL,"[2]; concentration of test compound 1.5 μg/ml, read-out: Release inhibition rate",58.4%
same,inhibition at 5 µg/mL,"[2]; concentration of test compound 5.0 μg/ml, read-out: Release inhibition rate",83.3%
same,IC50,[2],1.2 µg/mL
same,Solubility (solvents in which insoluble),Solubility,insoluble in hexane and water
same,Solubility (solvents in which soluble),Solubility,"soluble in methanol, acetone, ethyl acetate, acetonitrile and dimethylsulfoxide"
Cc1c(C)c(C(=O)Oc2c(C)c(O)c(C)c(C)c2SSC(=O)c2c(C)c(C)c(O)c(C)c2OC(=O)c2c(C)c(C)c(O)c(C)c2O)c(O)c(C)c1O [KS-506x],Solubility (solvents in which insoluble),Solubility,insoluble in hexane and water
same,Solubility (solvents in which soluble),Solubility,"soluble in methanol, ethanol, acetone, ethyl acetate, acetonitrile, dimethylsulfoxide and chloroform"
same,IC50 (concentration of a test compound inhibiting 50% of the PDE activity),[1],0.28 µg/mL
"COc1ccc(Cc2nccc3cc(OC)c(OC)cc23)cc1OC [Papaverine hydrochloride, reference compound]",IC50 (concentration of a test compound inhibiting 50% of the PDE activity),[1],60 µg/mL
"COc1c(O)cc2cc(C)oc(=O)c2c1O [Reticurol, reference compound]",IC50 (concentration of a test compound inhibiting 50% of the PDE activity),[1],20 µg/mL
